Data published in ChEMBL document CHEMBL4334518, “Discovery and Pharmacological Studies of 4-Hydroxyphenyl-Derived Phosphonium Salts Active in a Mouse Model of Visceral Leishmaniasis” (J Med Chem, 2019).

Experiments:
Leishmania donovani [1] = test: Antileishmanial activity against Leishmania donovani MHOM/ET/67/HU3 intracellular amastigotes infected in human THP1 cells after 96 hrs by prolong-gold antifade-reagent/DAPI staining based assay; format: functional, organism-based; conditions: MHOM/ET/67/HU3, THP-1, 96 h
[2] = Selectivity index, ratio of EC50 for cytotoxicity against human MRC5 cells to EC50 for antileishmanial activity against Leishmania donovani MHOM/ET/67/HU3 amastigotes infected in human THP1 cells; format: toxicity, cell-based; conditions: read-out: Ratio EC50
[3] = Selectivity index, ratio of EC50 for cytotoxicity against human THP1 cells to EC50 for antileishmanial activity against Leishmania donovani MHOM/ET/67/HU3 amastigotes infected in human THP1 cells; format: toxicity, cell-based; conditions: read-out: Ratio EC50
Leishmania donovani [4] = test: Antileishmanial activity against Leishmania donovani MHOM/ET/67/HU3 promastigote after 72 hrs by MTT assay; format: functional, organism-based; conditions: MHOM/ET/67/HU3, 72 h
Leishmania donovani [5] = test: Potency index, ratio of amphotericin B EC50 to test compound EC50 for antileishmanial activity against Leishmania […] amastigote infected in THP1 cells; format: functional
THP-1 = test: Cytotoxicity against human THP1 cells assessed as reduction in cell viability after 72 hrs by MTT assay; format: cell-based; conditions: THP-1, 72 h

| Structure (SMILES) | EC50 (Leishmania donovani [1]) [nM] | selectivity ratio [2] | selectivity ratio [3] | EC50 (Leishmania donovani [4]) [nM] | Ratio EC50 (Leishmania donovani [5]) | EC50 (THP-1) [nM] |
| --- | --- | --- | --- | --- | --- | --- |
| CCOC(=O)c1c(C)cc(OCCCCCCCCCCCCCC[P+](c2ccccc2)(c2ccccc2)c2ccccc2)cc1O | < 1000 | 2 to 27 |  |  |  |  |
| O=Cc1ccc(OCCCCCCCCCCCCCC[P+](c2ccccc2)(c2ccccc2)c2ccccc2)cc1O | < 1000 |  | 2 to 27 |  |  |  |
| O=C(O)c1ccc(OCCCCCCCCCC[P+](c2ccccc2)(c2ccccc2)c2ccccc2)cc1O | < 200 | 2 to 27 |  | < 200 |  |  |
| COC(=O)c1ccc(OCCCCCCCCCC[P+](c2ccccc2)(c2ccccc2)c2ccccc2)cc1O | < 1000 |  | 2 to 27 |  |  |  |
| O=C(OCCCCCCCCCCCCCC[n+]1cccc2ccccc21)c1ccc(O)cc1O | 800 |  | 3.7 to 5 | < 200 |  |  |
| Cc1cc(O)ccc1C(=O)CCCCCCCCCCCCCCC[P+](c1ccccc1)(c1ccccc1)c1ccccc1.[Br-] | 100 |  | 24.5 | 90 | 2 | 2450 |
| O=C(OCCCCCCCCCCCC[n+]1cccc2ccccc21)c1ccc(O)cc1O | 800 |  | 3.7 to 5 | < 200 |  |  |
| OCCCCCCCCCCCCCC[P+](c1ccccc1)(c1ccccc1)c1ccccc1 | 350 |  | 8.7 | 330 |  | 3050 |
| Cc1cc(O)ccc1C(=O)OCCCCCCCCCCCCCC[P+](c1ccccc1)(c1ccccc1)c1ccccc1 | 150 |  | 12.3 | 90 |  | 1840 |
| O=Cc1ccc(OCCCCCCCCCCCCCC[n+]2cccc3ccccc32)cc1O | 800 |  | 3.7 to 5 |  |  |  |
